Experiments:
Type in all cases: in vivo
[1] = tested on: Pseudoperonospora cubensis; test: Test 2: control effect against cucumber downy mildew; conditions: control value vs untreated section; for pest or weed control at 4 µg/mL: Pseudoperonospora cubensis, 120 h
In short: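 Cucumber (Sagami hanjiro) at 2-leaf stage sprayed with 4 ppm compound from 10% wettable powder in Tween20 (1/5000); inoculated next day with P. cubensis zoospores, 1.0×10^4 units/ml, 16 hr moist chamber at 22° C. Lesion area rate scored 5 days post-inoculation; control value = (1 − treated/untreated onset area rate)×100.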

[2] = tested on: Phytophthora infestans; test: whole plant or invertebrate; conditions: for pest or weed control at 4 µg/mL: Phytophthora infestans, in Solanum lycopersicum, 96 h, read-out: control value (Test 1); for control value (Test 1): tomato late blight, control value vs untreated section
[3] = tested on: Pythium graminicola; test: Test 4: control effect against rice damping-off by the Pythium fungus (soil lavage); conditions: 1,000 ppm, 2.5 ml test suspension drenched on contaminated soil, rice (koshihikari)
Protocol: A 10% wettable powder created according to the Pharmaceutical Formulation Example 1 was diluted with a Tween20 solution prepared to a concentration of 1/5000, then the compound of formula [1] was prepared to a concentration of 4 ppm. Further, the compound of formula [1] in Test 4 was adjusted to a concentration of 1,000 ppm.
<Test 4 Test of Control Effect Against Rice Damping-Off by the Pythium Fungus (Soil Lavage)>
Distilled water was added to the flora of Pythium graminicola cultured in bentoglass seed culture and stirred with a mixer, and adjusted the contaminated soil to 5 g of bacteria against 1 kg of soil.
In a cell tray having 31×31 mm^2 per cell, 20 ml of the contaminated soil was filled in each cell, and 3 seeds of rice chaff that has been forced to sprout (Species: koshihikari) were seeded, and 5 ml of soil was added for covering, then 2.5 ml of test suspension was drenched, and the seeds were incubated in a moist chamber adjusted to 28° C. for 72 hr to induce sprouting. Then, in a low temperature room of 5° C., the onset of disease was induced for 2 days, then the disease was nurtured for 14 days in a room of 25° C.
The soil was washed, and the apoptosis strain, growth restrained strain, and a healthy strain were measured and the onset rate was calculated by the following formula. Onset rate=[Σ(onset strain number by level×onset index)/(investigated strain×3)]×100 [Onset Index]
1: Growth restrained strain
Also, the following formula was used to compute the control value from the obtained onset index. control value={1−onset area rate at the section applied the test agent/onset area rate of untreated section}×100 Computational formula of the control value: […]

[4] = tested on: Plasmopara viticola; test: Test 3: control effect against grape downy mildew; conditions: control value vs untreated section; for pest or weed control at 4 µg/mL: Plasmopara viticola, 120 h
In short: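 Neomuscat grape seedlings were sprayed with compound at 4 ppm, diluted from a 10% wettable powder in Tween20 solution. One day later they were inoculated with Plasmopara viticola zoospores at 1.0×10^4 units/ml and held moist at 22° C. for 16 hr. Control value was derived from leaf lesion area at 5 days versus untreated leaves.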

In the case of `Cc1cc(C(F)(F)F)nn1CC(=O)N1CCC(c2nc(C3OCc4c(Br)ccc(Br)c4CO3)cs2)CC1` [Compound 1-100, 4-[4-(6,9-dibromo-1,5-dihydro-3H-2,4-benzodioxepin-3-yl)-2-thiazolyl]-1-[2-[5-methyl-3-(trifluoromethyl)-1H-pyrazole-1-yl]acetyl]piperidine], the pest or weed control at 4 µg/mL [1] is reported as 100%, the pest or weed control at 4 µg/mL [2] is reported as 100% and the pest or weed control at 1000 ppm [3] is reported as no less than 90%. The pest or weed control at 4 µg/mL [4] was 100%.

In the case of `Cc1cc(C(F)(F)F)nn1CC(=O)N1CCC(c2nc(C3(C)OCc4c(F)ccc(OS(C)(=O)=O)c4CO3)cs2)CC1` (stereo not shown) [Compound 1-154], the “control value (Test 2)” value [1] is reported as 100, the “control value (Test 1)” value [2] is reported as 90 and the “control value (Test 3)” value [4] is reported as 100.

With `CCS(=O)(=O)Oc1ccc2c(c1)COC(c1csc(C3CCN(C(=O)Cn4nc(C(F)(F)F)cc4C)CC3)n1)OC2` (stereo not shown) [Compound 1-29] the “control value (Test 2)” value [1] was 90, the “control value (Test 1)” value [2] was 100 and the “control value (Test 3)” value [4] was 100.

For `CS(=O)(=O)Oc1ccc2c(c1)COC(c1csc(C3CCN(C(=O)Cn4nc(C(F)F)cc4C(F)F)CC3)n1)OC2` (stereo not shown) [Compound 1-138], the “control value (Test 2)” value [1] was 100, the “control value (Test 1)” value [2] was 100 and the “control value (Test 3)” value [4] was 100.

`O=C(Cc1cc(Cl)ccc1Cl)N1CCC(c2nc(C3OCc4ccc([N+](=O)[O-])cc4CO3)cs2)CC1` (stereo not shown) [Compound 2-21] was tested, and the “control value (Test 2)” value [1] was 100, the “control value (Test 1)” value [2] was 50 and the “control value (Test 3)” value [4] was 100.

`Cc1cc(C(F)(F)F)nn1CC(=O)N1CCC(c2nc(C3OCc4c(OC(F)F)ccc(OS(C)(=O)=O)c4CO3)cs2)CC1` (stereo not shown) [Compound 1-143] was tested, and the “control value (Test 2)” value [1] was 100, the “control value (Test 1)” value [2] was 100 and the “control value (Test 3)” value [4] was 100.

In the case of `COc1cccc2c1COC(c1csc(C3CCN(C(=O)Cc4cc(Cl)ccc4Cl)CC3)n1)OC2` (stereo not shown) [Compound 2-51], the “control value (Test 2)” value [1] is reported as 100, the “control value (Test 1)” value [2] is reported as 100 and the “control value (Test 3)” value [4] is reported as 100.

With `Cc1cc(C(F)(F)F)nn1CC(=O)N1CCC(c2nc(C3OCc4c(I)ccc(OS(C)(=O)=O)c4CO3)cs2)CC1` (stereo not shown) [Compound 1-101] the “control value (Test 2)” value [1] was 100, the “control value (Test 1)” value [2] was 100 and the “control value (Test 3)” value [4] was 100.

`O=C(Cn1nc(C(F)(F)F)cc1C(F)(F)F)N1CCC(c2nc(C3OCc4cccc([N+](=O)[O-])c4CO3)cs2)CC1` (stereo not shown) [Compound 1-114] was tested, and the “control value (Test 2)” value [1] was 100, the “control value (Test 1)” value [2] was 100 and the “control value (Test 3)” value [4] was 100.

With `COc1ccc(Cl)c2c1COC(c1csc(C3CCN(C(=O)Cn4nc(C(F)F)cc4C(F)F)CC3)n1)OC2` (stereo not shown) [Compound 1-112] the “control value (Test 2)” value [1] was 100, the “control value (Test 1)” value [2] was 100 and the “control value (Test 3)” value [4] was 100.

`Cc1cc(C(F)(F)F)nn1CC(=O)N1CCC(c2nc(C3OCc4c(OS(C)(=O)=O)ccc(OS(C)(=O)=O)c4CO3)cs2)CC1` [Compound 1-103] was tested, and the “control value (Test 2)” value [1] was 100, the “control value (Test 1)” value [2] was 100 and the “control value (Test 3)” value [4] was 100.

With `Cc1cc(C(F)(F)F)nn1CC(=O)N1CCC(c2nc(C3OCc4cccc(OS(=O)(=O)C5CC5)c4CO3)cs2)CC1` (stereo not shown) [Compound 1-13] the “control value (Test 2)” value [1] was 100, the “control value (Test 1)” value [2] was 100 and the “control value (Test 3)” value [4] was 100.

For `COc1ccc(OS(C)(=O)=O)c2c1COC(c1csc(C3CCN(C(=O)CON=CC(F)(F)F)CC3)n1)OC2` (stereo not shown) [Compound 3-5], the “control value (Test 2)” value [1] was 100, the “control value (Test 1)” value [2] was 100 and the “control value (Test 3)” value [4] was 100.

In the case of `Cc1cc(C(F)(F)F)nn1CC(=O)N1CCC(c2nc(C3OCc4c(O)ccc(F)c4CO3)cs2)CC1` (stereo not shown) [Compound 1-161], the “control value (Test 2)” value [1] is reported as 100, the “control value (Test 1)” value [2] is reported as 100 and the “control value (Test 3)” value [4] is reported as 100.

`Cc1cc(C(F)(F)F)nn1CC(=O)N1CCC(c2nc(C3OCc4cc5c(cc4CO3)CCC5)cs2)CC1` [Compound 1-31] was tested, and the “control value (Test 2)” value [1] was 100, the “control value (Test 1)” value [2] was 100 and the “control value (Test 3)” value [4] was 100.

With `Cc1cc(C(F)(F)F)nn1CC(=S)N1CCC(c2nc(C3OCc4c(F)ccc(OS(C)(=O)=O)c4CO3)cs2)CC1` (stereo not shown) [Compound 1-107] the “control value (Test 2)” value [1] was 100, the “control value (Test 1)” value [2] was 100 and the “control value (Test 3)” value [4] was 100.

`O=C(Cn1nc(C(F)F)cc1C(F)F)N1CCC(c2nc(C3OCc4cc5c(cc4CO3)CCC5)cs2)CC1` [Compound 1-61, 4-[4-(1,5,7,8,9-pentahydro-3H-2,4-indenodioxepin-3-yl)-2-thiazolyl]-1-[2-[3,5-bis(difluoromethyl)-1H-pyrazole-1-yl]acetyl]piperidine] was tested, and the “control value (Test 2)” value [1] was 100, the “control value (Test 1)” value [2] was 100 and the “control value (Test 3)” value [4] was 100.

In the case of `COc1ccc([N+](=O)[O-])c2c1COC(c1csc(C3CCN(C(=O)Cn4nc(C(F)F)cc4C(F)F)CC3)n1)OC2` (stereo not shown) [Compound 1-74], the “control value (Test 2)” value [1] is reported as 100, the “control value (Test 1)” value [2] is reported as 100 and the “control value (Test 3)” value [4] is reported as 100.

In the case of `Cc1ccc(C)c(CC(=O)N2CCC(c3nc(C4OCc5c(OS(C)(=O)=O)cc(C)c(C)c5CO4)cs3)CC2)c1` (stereo not shown) [Compound 2-31, 4-[4-(6,7-dimethyl-9-methylsulfonyloxy-1,5-dihydro-3H-2,4-benzodioxepin-3-yl)-2-thiazolyl]-1-[2-(2,5-dimethylphenyl)acetyl]piperidine], the pest or weed control at 4 µg/mL [1] is reported as 100%, the pest or weed control at 4 µg/mL [2] is reported as 0% and the pest or weed control at 4 µg/mL [4] is reported as 100%.

`COc1ccc(F)c2c1COC(c1csc(C3CCN(C(=O)Cn4nc(C(F)(F)F)cc4C(F)(F)F)CC3)n1)OC2` (stereo not shown) [Compound 1-142] was tested, and the “control value (Test 2)” value [1] was 100, the “control value (Test 1)” value [2] was 100 and the “control value (Test 3)” value [4] was 100.

For `COc1ccc(OS(C)(=O)=O)c2c1COC(c1csc(C3CCN(C(=O)Cn4nc(C(F)(F)F)cc4C)CC3)n1)OC2` (stereo not shown) [Compound 1-26], the “control value (Test 2)” value [1] was 100, the “control value (Test 1)” value [2] was 100 and the “control value (Test 3)” value [4] was 100.

`Cc1ccc(C)c(CC(=O)N2CCC(c3nc(C4OCc5c(F)ccc(F)c5CO4)cs3)CC2)c1` [Compound 2-6] was tested, and the “control value (Test 2)” value [1] was 100, the “control value (Test 1)” value [2] was 100 and the “control value (Test 3)” value [4] was 100.

With `Cc1cc(C(F)(F)F)nn1CC(=S)N1CCC(c2nc(C3OCc4cccc(OS(C)(=O)=O)c4CO3)cs2)CC1` (stereo not shown) [Compound 1-106] the “control value (Test 2)” value [1] was 100, the “control value (Test 1)” value [2] was 100 and the “control value (Test 3)” value [4] was 100.

With `CC1OC(c2csc(C3CCN(C(=O)Cn4nc(C(F)(F)F)cc4C(F)(F)F)CC3)n2)OCc2ccccc21` (stereo not shown) [Compound 1-88] the “control value (Test 2)” value [1] was 100, the “control value (Test 1)” value [2] was 100 and the “control value (Test 3)” value [4] was 100.

`Cc1cc(C(F)(F)F)nn1CC(=O)N1CCC(c2nc(C3OCc4ccccc4CO3)cs2)CC1` [Compound 1-1] was tested, and the “control value (Test 2)” value [1] was 100, the “control value (Test 1)” value [2] was 100 and the “control value (Test 3)” value [4] was 100.

`Cc1cc(C(F)(F)F)nn1CC(=O)N1CCC(c2nc(C3OCc4c(Cl)ccc(OS(C)(=O)=O)c4CO3)cs2)CC1` (stereo not shown) [Compound 1-102] was tested, and the “control value (Test 2)” value [1] was 100, the “control value (Test 1)” value [2] was 100 and the “control value (Test 3)” value [4] was 100.

With `Cc1cc(C(F)(F)F)nn1CC(=O)N1CCC(c2nc(C3OCc4cccc(OS(=O)(=O)c5ccccc5)c4CO3)cs2)CC1` (stereo not shown) [Compound 1-48] the “control value (Test 2)” value [1] was 100, the “control value (Test 1)” value [2] was 100 and the “control value (Test 3)” value [4] was 100.

For `Cc1ccc(C)c(CC(=O)N2CCN(c3nc(C4OCc5cccc(OS(C)(=O)=O)c5CO4)cs3)CC2)c1` (stereo not shown) [Compound 2-54], the “control value (Test 2)” value [1] was 90, the “control value (Test 1)” value [2] was 90 and the “control value (Test 3)” value [4] was 100.

In the case of `Cc1cc2c(cc1C)COC(c1csc(C3CCN(C(=O)Cn4nc(C(F)(F)F)cc4C)CC3)n1)OC2` [Compound 1-4], the “control value (Test 2)” value [1] is reported as 100, the “control value (Test 1)” value [2] is reported as 100 and the “control value (Test 3)” value [4] is reported as 100.

Work on `CC(C)=NOCC(=O)N1CCC(c2nc(C3OCc4cccc(OS(C)(=O)=O)c4CO3)cs2)CC1` (stereo not shown) [Compound 3-1, 4-[4-(6-methylsulfonyloxy-1,5-dihydro-3H-2,4-benzodioxepin-3-yl)-2-thiazolyl]-1-[2-[(propane-2-ylideneamino)oxy]acetyl]piperidine] yielded a pest or weed control at 4 µg/mL [1] of 100%, a pest or weed control at 4 µg/mL [2] of 100% and a pest or weed control at 4 µg/mL [4] of 100%.

`Cc1cc(C(F)(F)F)nn1CC(=O)N1CCC(c2nc(C3OCc4cc(Cl)c(Cl)cc4CO3)cs2)CC1` [Compound 1-5] was tested, and the “control value (Test 2)” value [1] was 100, the “control value (Test 1)” value [2] was 100 and the “control value (Test 3)” value [4] was 100.

In the case of `COc1cccc2c1COC(c1csc(C3CCN(C(=O)Cn4nc(C(F)F)cc4C(F)F)CC3)n1)OC2` (stereo not shown) [Compound 1-141], the “control value (Test 2)” value [1] is reported as 100, the “control value (Test 1)” value [2] is reported as 100 and the “control value (Test 3)” value [4] is reported as 100.

From patent US10104891B2 (priority 2014, dated 2018)
